Measurements as given in patent publication US20100035904A1, “PHE[…]; METHODS OF MAKING; AND METHODS OF USE THEREOF” (priority 2008, published 2010).
Structures can show the parent of a compound that is named as a salt.

How the values were obtained:
[1] = Moisture sorption experiments; type: physicochemical; details: for hygroscopicity (moisture sorption analysis): 0-90% RH; for XRPD pattern of material following the moisture sorption experiment: after sorption/desorption and drying
Experimental: Moisture sorption experiments are carried out on about 10 milligrams (mg) of sample in a Pyrex bulb by first equilibrating the sample at 25° C./40% relative humidity (RH) until an equilibrium weight is reached. The sample is then subjected to an isothermal (25° C.) adsorption scan from 40 to 90% RH in steps of 10% RH. The sample is allowed to equilibrate to either an asymptotic weight or a maximum of four hours for each relative humidity. A desorption scan from 90 to 0% RH (at 25° C.) is then run in steps of −10% again allowing a maximum of four hours for equilibration or an asymptotic weight. Following desorption, an adsorption scan is performed from 0% RH to the initial 40% RH. The sample is then dried for one hour at 80° C. to obtain the dry weight.

[2] = background statement; cited from earlier work
[3] = Stability of the salt in seven day toluene slurry (XRPD); type: physicochemical; details: ambient temperature, seven days
Experimental: Stability of the salt is evaluated using a seven day toluene slurry. Each salt (about 10-20 mg) is slurried in 250 microliters of toluene at ambient temperature for seven days in a 4 ml vial. After seven days, each sample is filtered and dried overnight at ambient temperature under vacuum. The samples are then analyzed by XRPD.

[4] = Analysis of residual solids from water slurry (XRPD, 1H-NMR) for form conversion; type: physicochemical; details: water slurry overnight, ambient temperature

CCC1(c2ccccc2)C(=O)NC(=O)NC1=O [Phenobarbital free form, 5-ethyl-5-phenyl-2,4,6(1H,3H,5H)-pyrimidinetrione, reference compound]
hygroscopicity (moisture sorption analysis) ([1]; 25° C.): nonhygroscopic | water adsorbed at 90% RH ([1]; 25° C.): 0.1 wt % | XRPD pattern of material following the moisture sorption experiment [1]: consistent with the initial phenobarbital starting material

CCC1(c2ccccc2)C(=O)NC(=O)NC1=O [Phenobarbital sodium]
hygroscopicity / stability in humid environments [2]: hygroscopic and degrades when exposed to humid environments

CCC1(c2ccccc2)C(=O)[N-]C(=O)NC1=O.C[N+](C)(C)CCO [phenobarbital choline salt, phenobarbital choline]
hygroscopicity (moisture sorption analysis) ([1]; 25° C.): hygroscopic | water adsorbed at 90% RH ([1]; 25° C.): 23 wt % | XRPD pattern of material following the moisture sorption experiment [1]: consistent with the initial material | XRPD of material following seven day toluene slurry [3]: consistent with the initial material | stability of the salt in water slurry (conclusion) [4]: remained stable

CCC1(c2ccccc2)C(=O)NC(=O)NC1=O [phenobarbital potassium salt, phenobarbital potassium]
stability of the salt in water slurry (conclusion) [4]: potential dissociation

CCC1(c2ccccc2)C(=O)NC(=O)NC1=O [phenobarbital sodium salt, phenobarbital sodium]
hygroscopicity (moisture sorption analysis) ([1]; 25° C.): hygroscopic | water adsorbed between 10-60% RH ([1]; 25° C., 10-60% RH): approximately 2 wt % | water adsorbed at 90% RH ([1]; 25° C.): approximately 34 wt % | XRPD pattern of material following the moisture sorption experiment [1]: shows differences in comparison to the diffraction pattern of the initial material | water content at which the desorption curve stabilizes ([1]; desorption, 40-5% RH): approximately 12 wt % | XRPD of material following seven day toluene slurry [3]: amorphous

phenobarbital benzathine
hygroscopicity (moisture sorption analysis) ([1]; 25° C.): nonhygroscopic | water adsorbed at 90% RH ([1]; 25° C.): 1.0 wt % | XRPD pattern of material following the moisture sorption experiment [1]: consistent with the initial material | stability of the salt in water slurry (conclusion) [4]: remained stable

phenobarbital betaine [phenobarbital betaine salt]
hygroscopicity (moisture sorption analysis) ([1]; 25° C.): hygroscopic | water adsorbed at 90% RH ([1]; 25° C.): 28.1 wt % | XRPD pattern of material following the moisture sorption experiment [1]: consistent with the initial material | XRPD of material following seven day toluene slurry [3]: consistent with the initial material | stability of the salt in water slurry (conclusion) [4]: salt dissociation
